Reference: patent publication US6838414B2, “Substituted aryl sulphonyl(thio)ureas used as herbicides” (Bayer Aktiengesellschaft, priority 1996, dated 2005)

Key:
Assay type in all cases: in vivo
weeds [1] = assay: Pre-emergence test (overall statement); details: application rates between 30 g and 125 g of a.i. per hectare
Protocol: (§1) To produce a suitable preparation of active compound, 1 part by weight of active compound is mixed with the stated amount of solvent, the stated amount of emulsifier is added and the concentrate is diluted with water to the desired concentration.
(§2) Seeds of the test plants are sown in normal soil. After about 24 hours, the soil is sprayed with the preparation of the active compound. Advantageously, the amount of water per unit area is kept constant. The active compound concentration in the preparation is not important, only the active compound application rate per unit area is critical.
(§3) After three weeks, the degree of damage to the plants is rated in % damage in comparison with the development of the untreated control.
(§4) The figures denote: • 0%=no effect (like untreated control) • 100%=total destruction

Sorghum = assay: Pre-emergence test/greenhouse; details: after three weeks
Protocol: as §1, §2, §3, §4

Chenopodium = assay: Pre-emergence test/greenhouse; details: after three weeks
Protocol: as §1, §2, §3, §4

Stellaria = assay: Pre-emergence test/greenhouse; details: after three weeks
Protocol: as §1, §2, §3, §4

Amaranthus = assay: Pre-emergence test/greenhouse; details: after three weeks
Protocol: as §1, §2, §3, §4

Alopecurus [2] = assay: Pre-emergence test/greenhouse; details: after three weeks
Protocol: as §1, §2, §3, §4

Lolium = assay: Pre-emergence test/greenhouse; details: after three weeks
Protocol: as §1, §2, §3, §4

weeds [3] = assay: Post-emergence test/greenhouse
Protocol: as §1
(§5) Test plants which have a height of 5-15 cm are sprayed with the preparation of the active compound in such a way as to apply the particular amounts of active compound desired per unit area. The concentration of the spray liquor is chosen so that the amounts of active compound desired in each case are applied in 1000 l of water/ha.
as §3, §4

Abutilon = assay: Post-emergence test/greenhouse; details: rated after three weeks vs untreated control
Protocol: as §1, §5, §3, §4

Echinochloa = assay: Post-emergence test/greenhouse; details: rated after three weeks vs untreated control
Protocol: as §1, §5, §3, §4

Alopecurus [4] = assay: Post-emergence test/greenhouse; details: rated after three weeks vs untreated control
Protocol: as §1, §5, §3, §4

Matricaria = assay: Post-emergence test/greenhouse; details: rated after three weeks vs untreated control
Protocol: as §1, §5, §3, §4

[5] = application rate 30 g of ai./ha
[6] = application rate 60 g of ai./ha

Structure (SMILES) | activity against weeds (weeds [1]) | Sorghum, % damage (Sorghum; 30 g of ai./ha) [%] | Chenopodium, % damage (Chenopodium; 30 g of ai./ha) [%] | Steltaria, % damage (Stellaria; 30 g of ai./ha) [%] | Amaranthus, % damage (Amaranthus; 30 g of ai./ha) [%] | Alopecurus, % damage (Alopecurus [2]; 30 g of ai./ha) [%] | Lolium, % damage (Lolium; 30 g of ai./ha) [%] | activity against weeds (weeds [3]) | degree of damage to the plants, Abutilon (Abutilon; [5]) [%] | degree of damage to the plants, Echinochloa (Echinochloa; [5]) [%] | degree of damage to the plants, Alopecurus (Alopecurus [4]; [5]) [%] | degree of damage to the plants, Matricaria (Matricaria; [5]) [%] | Sorghum, % damage (Sorghum; 60 g of ai./ha) [%] | Chenopodium, % damage (Chenopodium; 60 g of ai./ha) [%] | Steltaria, % damage (Stellaria; 60 g of ai./ha) [%] | Amaranthus, % damage (Amaranthus; 60 g of ai./ha) [%] | Alopecurus, % damage (Alopecurus [2]; 60 g of ai./ha) [%] | Lolium, % damage (Lolium; 60 g of ai./ha) [%] | further results
COc1cc(C)nc(NC(=O)NS(=O)(=O)c2c(C)cccc2OC)n1 [Example 43] | very strong activity against weeds | 100 | 100 | 100 | 100 | 100 | 100 | very strong activity against weeds | 100 | 95 | 60 | 100 |  |  |  |  |  |  | 
COc1nc(C)nc(NC(=O)NS(=O)(=O)c2c(C)cccc2OC(F)F)n1 [Example 66] | very strong activity against weeds |  |  |  |  |  |  | very strong activity against weeds |  |  |  |  | 95 | 95 | 95 | 95 | 95 | 95 | degree of damage to the plants, Abutilon (Abutilon; [6]): 100%; degree of damage to the plants, Echinochloa (Echinochloa; [6]): 80%; degree of damage to the plants, Alopecurus (Alopecurus [4]; [6]): 80%; degree of damage to the plants, Matricaria (Matricaria; [6]): 100%
COc1nc(NC(=O)NS(=O)(=O)c2c(C)cccc2OC(C)C)nc(OC)n1 [Example 38] | very strong activity against weeds | 100 | 100 | 100 | 80 | 100 | 100 | very strong activity against weeds | 95 | 70 | 60 | 95 |  |  |  |  |  |  | 
CCOc1cccc(C)c1S(=O)(=O)NC(=O)Nc1nc(C)nc(OC)n1 [Example 32] | very strong activity against weeds |  |  |  |  |  |  | very strong activity against weeds |  |  |  |  | 95 | 100 | 100 | 100 | 95 | 100 | degree of damage to the plants, Abutilon (Abutilon; [6]): 100%; degree of damage to the plants, Echinochloa (Echinochloa; [6]): 90%; degree of damage to the plants, Alopecurus (Alopecurus [4]; [6]): 70%; degree of damage to the plants, Matricaria (Matricaria; [6]): 100%
CCOc1cccc(C)c1S(=O)(=O)NC(=O)Nc1nc(C)cc(OC)n1 [Example 27] | very strong activity against weeds |  |  |  |  |  |  | very strong activity against weeds |  |  |  |  | 100 | 100 | 100 | 100 | 100 | 100 | degree of damage to the plants, Abutilon (Abutilon; [6]): 100%; degree of damage to the plants, Echinochloa (Echinochloa; [6]): 95%; degree of damage to the plants, Alopecurus (Alopecurus [4]; [6]): 95%; degree of damage to the plants, Matricaria (Matricaria; [6]): 90%
COc1nc(C)nc(NC(=O)NS(=O)(=O)c2c(C)cccc2OC)n1 [Example 40] | very strong activity against weeds | 100 | 100 | 100 | 100 | 100 | 100 | very strong activity against weeds | 95 | 95 | 100 | 100 |  |  |  |  |  |  | 
CCCOc1cccc(C(F)(F)F)c1S(=O)(=O)NC(=O)Nc1nc(C)nc(OC)n1 [Example 9] | very strong activity against weeds | 90 | 100 | 100 | 100 | 100 | 100 | very strong activity against weeds |  |  |  |  |  |  |  |  |  |  | degree of damage to the plants, Abutilon (Abutilon; application rate 8 g of ai./ha): 100%; degree of damage to the plants, Echinochloa (Echinochloa; application rate 8 g of ai./ha): 80%; degree of damage to the plants, Alopecurus (Alopecurus [4]; application rate 8 g of ai./ha): 90%; degree of damage to the plants, Matricaria (Matricaria; application rate 8 g of ai./ha): 95%
COc1cc(OC)nc(NC(=O)NS(=O)(=O)c2c(C)cccc2OC)n1 [Example 44] | very strong activity against weeds | 100 | 100 | 100 | 100 | 100 | 100 | very strong activity against weeds | 100 | 90 | 60 | 100 |  |  |  |  |  |  | 
CCOc1cccc(C(F)(F)F)c1S(=O)(=O)NC(=O)Nc1nc(OC)nc(OC)n1 [Example 7] | very strong activity against weeds |  |  |  |  |  |  | very strong activity against weeds | 95 | 95 | 95 | 100 | 100 | 100 | 95 | 95 | 100 | 95 | 
COc1nc(NC(=O)NS(=O)(=O)c2c(OC)cccc2C(F)(F)F)nc(OC)n1 [Example 6] | very strong activity against weeds |  |  |  |  |  |  | very strong activity against weeds | 90 | 100 | 60 | 100 | 100 | 100 | 100 | 100 | 100 | 100 | 
CCOc1cccc(C)c1S(=O)(=O)NC(=O)Nc1nc(OC)nc(OC)n1 [Example 31] | very strong activity against weeds |  |  |  |  |  |  | very strong activity against weeds |  |  |  |  | 90 | 100 | 95 | 95 | 95 | 100 | degree of damage to the plants, Abutilon (Abutilon; [6]): 100%; degree of damage to the plants, Echinochloa (Echinochloa; [6]): 80%; degree of damage to the plants, Alopecurus (Alopecurus [4]; [6]): 80%; degree of damage to the plants, Matricaria (Matricaria; [6]): 100%
COc1nc(C)nc(NC(=O)NS(=O)(=O)c2c(OC(C)C)cccc2C(F)(F)F)n1 [Example 12] | very strong activity against weeds | 100 | 95 | 100 | 100 | 100 | 100 | very strong activity against weeds | 95 | 90 | 95 | 100 |  |  |  |  |  |  | 
COc1cccc(C)c1S(=O)(=O)NC(=O)Nc1nc(C)cc(C)n1 [Example 41] | very strong activity against weeds | 100 | 100 | 80 | 60 | 95 | 100 | very strong activity against weeds | 90 | 95 | 60 | 70 |  |  |  |  |  |  | 
COc1nc(C)nc(NC(=O)NS(=O)(=O)c2c(OC)cccc2C(F)(F)F)n1 [Example 5] | very strong activity against weeds |  |  |  |  |  |  | very strong activity against weeds | 100 | 100 | 80 | 100 | 100 | 100 | 100 | 100 | 100 | 100 | 
CCOc1cccc(C(F)(F)F)c1S(=O)(=O)NC(=O)Nc1nc(C)nc(OC)n1 [Example 4] | very strong activity against weeds |  |  |  |  |  |  | very strong activity against weeds | 100 | 90 | 90 | 100 | 100 | 100 | 95 | 100 | 100 | 100 | 
